Results from ChEMBL document CHEMBL4118091, “N-Acylbenzenesulfonamide Dihydro-1,3,4-oxadiazole Hybrids: Seeking Selectivity toward Carbonic Anhydrase Isoforms” (ACS Med Chem Lett, 2017).

Tests used:
[1] = biological target: Carbonic anhydrase 9 (Homo sapiens, UniProt Q16790); assay: Inhibition of recombinant human carbonic anhydrase 9 assessed as reduction in CO2 hydration pretreated for 15 mins followed by CO2 addition measured for 10 to 100 sec by Line-Weaver Burk plot analysis
[2] = biological target: Carbonic anhydrase 1 (Homo sapiens, UniProt P00915); assay: Inhibition of recombinant human carbonic anhydrase 1 assessed as reduction in CO2 hydration pretreated for 15 mins followed by CO2 addition measured for 10 to 100 sec by Line-Weaver Burk plot analysis
Sequence of Carbonic anhydrase 1 (P00915 whole entry): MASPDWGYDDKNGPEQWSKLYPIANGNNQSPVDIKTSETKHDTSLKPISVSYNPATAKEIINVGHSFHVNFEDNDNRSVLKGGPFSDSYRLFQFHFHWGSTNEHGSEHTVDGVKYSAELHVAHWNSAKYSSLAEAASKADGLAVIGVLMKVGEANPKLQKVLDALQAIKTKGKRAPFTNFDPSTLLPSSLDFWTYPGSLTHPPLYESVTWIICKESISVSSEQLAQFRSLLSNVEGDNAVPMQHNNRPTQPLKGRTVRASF

Structure (SMILES) | Ki [1] | Ki [2]
CC(=O)NS(=O)(=O)c1ccc(C2=NN(C(C)=O)C(c3ccc(F)cc3F)O2)cc1 (centres undefined) | 0.373 µM | –
CC(=O)NS(=O)(=O)c1ccc(C2=NN(C(C)=O)C(c3cccc([N+](=O)[O-])c3)O2)cc1 (centres undefined) | 0.0443 µM | > 10 µM
COc1ccccc1C1OC(c2ccc(S(=O)(=O)NC(C)=O)cc2)=NN1C(C)=O (centres undefined) | 0.378 µM | –
CC(=O)NS(=O)(=O)c1ccc(C2=NN(C(C)=O)C(c3ccc([N+](=O)[O-])cc3)O2)cc1 (centres undefined) | 0.0331 µM | –
COc1cccc(C2OC(c3ccc(S(=O)(=O)NC(C)=O)cc3)=NN2C(C)=O)c1 (centres undefined) | 0.43 µM | –
CC(=O)NS(=O)(=O)c1ccc(C2=NN(C(C)=O)C(c3ccccc3C)O2)cc1 (centres undefined) | 0.489 µM | –
CC(=O)NS(=O)(=O)c1ccc(C2=NN(C(C)=O)C(c3ccccc3[N+](=O)[O-])O2)cc1 (centres undefined) | 0.159 µM | > 10 µM
CC(=O)NS(=O)(=O)c1ccc(C2=NN(C(C)=O)C(c3ccc(Cl)cc3Cl)O2)cc1 (racemic) | 0.025 µM | –
CC(=O)NS(=O)(=O)c1ccc(C2=NN(C(C)=O)C(c3ccc(Cl)cc3Cl)O2)cc1 (single isomer, unassigned; (+)) | 0.0269 µM | –
CC(=O)NS(=O)(=O)c1ccc(C2=NN(C(C)=O)C(c3ccc(Cl)cc3Cl)O2)cc1 (single isomer, unassigned; (-)) | 0.0242 µM | –

Second part, the compound after the results:

Ki [1] | Ki [2] | Structure (SMILES)
0.0436 µM | – | CC(=O)NS(=O)(=O)c1ccc(C2=NN(C(C)=O)C(c3ccc(F)cc3)O2)cc1 (centres undefined)
0.143 µM | > 10 µM | COc1ccc(C2OC(c3ccc(S(=O)(=O)NC(C)=O)cc3)=NN2C(C)=O)cc1 (centres undefined)
0.502 µM | – | CC(=O)NS(=O)(=O)c1ccc(C2=NN(C(C)=O)C(c3ccc(Cl)cc3)O2)cc1 (centres undefined)
0.468 µM | > 10 µM | CC(=O)NS(=O)(=O)c1ccc(C2=NN(C(C)=O)C(c3ccc(C(F)(F)F)cc3)O2)cc1 (centres undefined)
0.502 µM | – | CC(=O)NS(=O)(=O)c1ccc(C2=NN(C(C)=O)C(c3ccc(C)cc3)O2)cc1 (centres undefined)
